Measured values taken from paper PMC7076571 (Neoplasia (New York, N.Y.), 2020).

Columns and labels:
Assay type in all cases: biochemical
RBX1 = RBX1 (Homo sapiens, UniProt P62877+Q13616, Q13616:L421E/Q13616:V451E/Q13616:V452K/Q13616:Y455K); experiment: in vitro CUL1 neddylation assay
SAG = target: T1, SAG (Homo sapiens, UniProt Q93034+Q9UBF6, Q93034:L407E/Q93034:L439K/Q93034:V440K); experiment: in vitro CUL5 neddylation assay
T1 sequence (Q9UBF6 2-113): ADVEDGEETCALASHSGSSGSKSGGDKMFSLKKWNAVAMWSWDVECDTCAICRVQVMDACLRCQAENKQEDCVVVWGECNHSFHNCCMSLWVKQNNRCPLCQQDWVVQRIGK
T1 sequence (Q93034 401-780 L407E/L439K/V440K): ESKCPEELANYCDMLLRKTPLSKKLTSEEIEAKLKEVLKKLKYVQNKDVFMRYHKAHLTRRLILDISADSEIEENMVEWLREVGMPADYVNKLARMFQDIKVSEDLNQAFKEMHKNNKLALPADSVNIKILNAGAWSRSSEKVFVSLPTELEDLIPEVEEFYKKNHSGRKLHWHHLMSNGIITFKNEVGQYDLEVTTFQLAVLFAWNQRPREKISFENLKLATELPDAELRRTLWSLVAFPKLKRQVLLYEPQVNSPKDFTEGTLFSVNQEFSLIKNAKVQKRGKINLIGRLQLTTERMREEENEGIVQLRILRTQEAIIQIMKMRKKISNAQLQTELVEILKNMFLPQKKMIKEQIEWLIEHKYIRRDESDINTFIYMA

CUL5 = target: T2, CUL5 (Homo sapiens, UniProt Q93034+Q9UBF6, Q93034:L407E/Q93034:L439K/Q93034:V440K); experiment: in vitro CUL5 neddylation assay
T2 sequence (Q93034 401-780 L407E/L439K/V440K): T1 sequence (Q93034 401-780 L407E/L439K/V440K)
T2 sequence (Q9UBF6 2-113): T1 sequence (Q9UBF6 2-113)

Sequence of RBX1 (Q13616 411-776 L421E/V451E/V452K/Y455K): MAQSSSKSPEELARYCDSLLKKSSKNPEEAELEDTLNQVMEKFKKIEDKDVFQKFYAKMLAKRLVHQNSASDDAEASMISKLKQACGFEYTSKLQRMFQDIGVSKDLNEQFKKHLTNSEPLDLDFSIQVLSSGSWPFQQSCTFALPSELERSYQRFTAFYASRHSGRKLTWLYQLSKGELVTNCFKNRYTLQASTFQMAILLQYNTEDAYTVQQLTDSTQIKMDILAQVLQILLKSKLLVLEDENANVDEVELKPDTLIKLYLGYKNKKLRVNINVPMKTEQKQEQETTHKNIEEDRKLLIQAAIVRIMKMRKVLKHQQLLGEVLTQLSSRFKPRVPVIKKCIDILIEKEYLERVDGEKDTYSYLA
Sequence of RBX1 (P62877 whole entry): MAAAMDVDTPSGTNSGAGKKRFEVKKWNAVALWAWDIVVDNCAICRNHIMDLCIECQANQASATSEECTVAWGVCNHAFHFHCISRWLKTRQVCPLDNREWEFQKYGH

For `Cc1cc2c(C(C)C)c(O)c(O)c(C=O)c2c(O)c1-c1c(C)cc2c(C(C)C)c(O)c(O)c(C=O)c2c1O` [gossypol], the IC50 (RBX1) was 3.4 µM, the IC50 (SAG) was 4.25 µM and the IC50 (CUL5) was 4.25 µM.
